Our source for the % of control and % of inhibition values is ChEMBL document CHEMBL5465560, “Selectivity Literature for EUbOPEN Chemogenomic Library” (2024).

Experiment [1] has as its target Tyrosine-protein kinase HCK (Homo sapiens) (UniProt P08631). The experiment is described as follows: Selectivity interaction (Ambit KINOMEscan and KiNATiv profiling in Jurkat cells) EUB0000090b HCK. Type of experiment: cell-based. The conditions noted are these: at 1 µM.
Experiment [2] has as its target Proto-oncogene tyrosine-protein kinase ROS (Homo sapiens) (UniProt P08922). The experiment is described as follows: Selectivity interaction (Ambit KINOMEscan and KiNATiv profiling in Jurkat cells) EUB0000090b ROS1. Type of experiment: cell-based. The conditions noted are these: at 1 µM.
Experiment [3] deals with Serine/threonine-protein kinase 32B (Homo sapiens) (UniProt Q9NY57). The experiment can be described thus: Selectivity interaction (KinomeScan (DiscoverX)) EUB0001079a STK32B. The settings on record: at 1 µM.
Experiment [4] addresses Tyrosine-protein kinase FRK (Homo sapiens) (UniProt P42685). The experiment is described as follows: Selectivity interaction (KinaseProfiler screening (Millipore)) EUB0000601a FRK. The conditions noted are these: at 3 µM.
For experiment [5], the target named is Dual specificity tyrosine-phosphorylation-regulated kinase 1B (Homo sapiens, UniProt Q9Y463). The experiment is described as follows: Selectivity interaction (KinomeScan (DiscoverX)) EUB0001619a DYRK1B. The settings on record: at 1 µM.
The target of experiment [6] is Phosphatidylinositol 4,5-bisphosphate 3-kinase catalytic subunit gamma isoform (Homo sapiens) (UniProt P48736). The experiment is described as follows: Selectivity interaction (Kinase panel (literature)) EUB0001199aCl PIK3CG. The settings on record: at 1 µM.
In experiment [7] the target is T1, SNF-related serine/threonine-protein kinase (Homo sapiens) (UniProt Q9NRH2).
T1 sequence (whole entry): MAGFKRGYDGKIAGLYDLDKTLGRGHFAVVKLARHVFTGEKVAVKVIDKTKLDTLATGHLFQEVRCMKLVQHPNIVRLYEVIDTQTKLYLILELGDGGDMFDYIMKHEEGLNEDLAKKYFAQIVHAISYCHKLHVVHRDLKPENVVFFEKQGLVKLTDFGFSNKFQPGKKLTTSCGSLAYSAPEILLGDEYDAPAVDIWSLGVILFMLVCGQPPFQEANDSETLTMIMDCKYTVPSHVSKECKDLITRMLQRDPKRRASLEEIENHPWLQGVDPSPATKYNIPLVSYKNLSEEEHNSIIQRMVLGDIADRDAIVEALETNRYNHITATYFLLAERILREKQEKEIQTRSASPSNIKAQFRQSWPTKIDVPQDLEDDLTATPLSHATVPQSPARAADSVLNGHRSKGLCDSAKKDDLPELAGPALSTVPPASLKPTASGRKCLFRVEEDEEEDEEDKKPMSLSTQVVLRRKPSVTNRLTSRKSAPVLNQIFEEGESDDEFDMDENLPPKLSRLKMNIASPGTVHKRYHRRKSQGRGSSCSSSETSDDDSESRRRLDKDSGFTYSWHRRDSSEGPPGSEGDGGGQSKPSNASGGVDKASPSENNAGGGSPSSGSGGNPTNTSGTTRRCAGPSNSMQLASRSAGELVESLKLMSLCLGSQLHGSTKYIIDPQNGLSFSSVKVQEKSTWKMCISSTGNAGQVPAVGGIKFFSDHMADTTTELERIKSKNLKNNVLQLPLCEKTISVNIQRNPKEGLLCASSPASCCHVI
The experiment is described as follows: Selectivity interaction (ActivX KiNativ screen (kinase selectivity in THP-1 cell lysates)) EUB0000639a SNRK. It counts as subcellular. The conditions noted are these: lysate, at 0.01 µM.

The target of experiment [8] is Tyrosine-protein kinase ABL1 (Homo sapiens, UniProt P00519). The experiment is described as follows: Selectivity interaction (Kinase panel (Invitrogen)) EUB0000639a ABL1. The settings on record: at 200 nM.
In experiment [9] the target is T2, Serine/threonine-protein kinase NLK (Homo sapiens) (UniProt Q9UBE8).
T2 sequence (whole entry): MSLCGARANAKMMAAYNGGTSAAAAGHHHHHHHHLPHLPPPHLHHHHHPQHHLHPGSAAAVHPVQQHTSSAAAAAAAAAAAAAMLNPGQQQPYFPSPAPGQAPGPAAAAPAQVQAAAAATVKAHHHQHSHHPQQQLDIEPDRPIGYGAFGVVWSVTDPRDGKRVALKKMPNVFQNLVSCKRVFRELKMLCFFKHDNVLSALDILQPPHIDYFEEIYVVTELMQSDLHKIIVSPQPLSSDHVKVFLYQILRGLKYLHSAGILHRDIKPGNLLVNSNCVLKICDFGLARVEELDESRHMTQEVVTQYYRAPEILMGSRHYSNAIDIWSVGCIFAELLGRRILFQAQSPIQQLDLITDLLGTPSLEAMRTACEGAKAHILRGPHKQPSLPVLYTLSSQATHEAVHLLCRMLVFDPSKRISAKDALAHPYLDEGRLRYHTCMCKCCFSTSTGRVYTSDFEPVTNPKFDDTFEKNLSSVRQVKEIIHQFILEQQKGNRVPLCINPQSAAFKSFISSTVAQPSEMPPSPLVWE
The settings on record: at 10 µM.

Experiment [10] deals with T3, Protein kinase C iota type (Homo sapiens) (UniProt P41743).
T3 sequence (whole entry): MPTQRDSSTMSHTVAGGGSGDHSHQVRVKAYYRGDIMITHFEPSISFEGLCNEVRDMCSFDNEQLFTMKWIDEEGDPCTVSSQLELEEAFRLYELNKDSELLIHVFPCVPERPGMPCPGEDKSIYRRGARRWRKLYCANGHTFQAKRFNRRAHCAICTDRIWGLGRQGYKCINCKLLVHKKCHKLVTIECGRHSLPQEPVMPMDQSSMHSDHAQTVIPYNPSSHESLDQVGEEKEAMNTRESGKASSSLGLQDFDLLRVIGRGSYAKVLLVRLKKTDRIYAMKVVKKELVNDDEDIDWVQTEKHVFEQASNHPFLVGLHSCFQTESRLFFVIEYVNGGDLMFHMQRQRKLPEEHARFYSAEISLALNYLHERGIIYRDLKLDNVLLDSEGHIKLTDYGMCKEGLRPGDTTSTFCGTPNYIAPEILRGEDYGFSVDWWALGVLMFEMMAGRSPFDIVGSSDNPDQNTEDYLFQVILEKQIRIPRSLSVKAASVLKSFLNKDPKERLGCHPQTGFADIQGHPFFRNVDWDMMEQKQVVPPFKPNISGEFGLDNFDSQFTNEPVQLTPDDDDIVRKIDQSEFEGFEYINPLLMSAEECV
The experiment can be described thus: Selectivity interaction (KinomeScan (DiscoverX)) EUB0000595a PRKCI. The settings on record: at 10 µM.

For experiment [11], the target named is NT-3 growth factor receptor (Homo sapiens, UniProt Q16288). The experiment is described as follows: Selectivity interaction (KinomeScan (DiscoverX)) EUB0000595a NTRK3. The conditions noted are these: at 10 µM.
Sequence of NT-3 growth factor receptor (Q16288 32-839 limits assumed): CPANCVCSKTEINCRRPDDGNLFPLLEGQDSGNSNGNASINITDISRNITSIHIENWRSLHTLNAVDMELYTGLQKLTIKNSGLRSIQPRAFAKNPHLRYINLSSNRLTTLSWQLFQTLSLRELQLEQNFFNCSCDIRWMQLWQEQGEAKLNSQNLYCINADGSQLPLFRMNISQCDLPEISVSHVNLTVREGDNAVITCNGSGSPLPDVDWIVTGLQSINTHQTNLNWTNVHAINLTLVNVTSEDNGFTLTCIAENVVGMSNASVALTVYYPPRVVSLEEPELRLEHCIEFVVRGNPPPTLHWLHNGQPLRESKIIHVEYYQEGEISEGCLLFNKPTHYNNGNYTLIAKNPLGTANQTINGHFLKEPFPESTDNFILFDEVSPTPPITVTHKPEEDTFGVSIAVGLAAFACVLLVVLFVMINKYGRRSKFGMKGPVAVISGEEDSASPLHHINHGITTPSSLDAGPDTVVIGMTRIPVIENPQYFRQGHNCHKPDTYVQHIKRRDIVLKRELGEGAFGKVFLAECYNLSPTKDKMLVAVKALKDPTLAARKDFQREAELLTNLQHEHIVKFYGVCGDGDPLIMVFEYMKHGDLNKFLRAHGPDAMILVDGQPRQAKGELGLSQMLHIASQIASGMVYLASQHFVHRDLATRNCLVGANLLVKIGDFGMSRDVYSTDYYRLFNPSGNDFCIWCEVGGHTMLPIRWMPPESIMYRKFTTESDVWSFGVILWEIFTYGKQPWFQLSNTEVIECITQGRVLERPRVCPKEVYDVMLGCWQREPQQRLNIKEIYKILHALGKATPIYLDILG

Sequence of Tyrosine-protein kinase HCK (Homo sapiens) (P08631 2-526 limits assumed): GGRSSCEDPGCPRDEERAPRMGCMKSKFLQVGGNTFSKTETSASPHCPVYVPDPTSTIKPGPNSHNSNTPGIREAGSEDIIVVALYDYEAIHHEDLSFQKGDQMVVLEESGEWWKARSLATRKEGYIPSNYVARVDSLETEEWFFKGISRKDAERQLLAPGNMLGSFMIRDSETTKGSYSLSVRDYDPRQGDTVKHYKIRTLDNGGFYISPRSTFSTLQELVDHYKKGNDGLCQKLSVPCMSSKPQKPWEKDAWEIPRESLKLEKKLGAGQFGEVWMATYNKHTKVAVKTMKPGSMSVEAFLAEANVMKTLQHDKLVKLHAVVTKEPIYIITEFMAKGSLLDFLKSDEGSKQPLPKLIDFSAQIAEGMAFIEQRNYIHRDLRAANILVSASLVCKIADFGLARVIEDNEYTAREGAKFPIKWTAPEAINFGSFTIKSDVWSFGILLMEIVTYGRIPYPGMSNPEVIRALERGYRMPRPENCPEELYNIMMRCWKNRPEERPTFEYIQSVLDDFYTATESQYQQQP
Sequence of Proto-oncogene tyrosine-protein kinase ROS (Homo sapiens) (P08922 whole entry): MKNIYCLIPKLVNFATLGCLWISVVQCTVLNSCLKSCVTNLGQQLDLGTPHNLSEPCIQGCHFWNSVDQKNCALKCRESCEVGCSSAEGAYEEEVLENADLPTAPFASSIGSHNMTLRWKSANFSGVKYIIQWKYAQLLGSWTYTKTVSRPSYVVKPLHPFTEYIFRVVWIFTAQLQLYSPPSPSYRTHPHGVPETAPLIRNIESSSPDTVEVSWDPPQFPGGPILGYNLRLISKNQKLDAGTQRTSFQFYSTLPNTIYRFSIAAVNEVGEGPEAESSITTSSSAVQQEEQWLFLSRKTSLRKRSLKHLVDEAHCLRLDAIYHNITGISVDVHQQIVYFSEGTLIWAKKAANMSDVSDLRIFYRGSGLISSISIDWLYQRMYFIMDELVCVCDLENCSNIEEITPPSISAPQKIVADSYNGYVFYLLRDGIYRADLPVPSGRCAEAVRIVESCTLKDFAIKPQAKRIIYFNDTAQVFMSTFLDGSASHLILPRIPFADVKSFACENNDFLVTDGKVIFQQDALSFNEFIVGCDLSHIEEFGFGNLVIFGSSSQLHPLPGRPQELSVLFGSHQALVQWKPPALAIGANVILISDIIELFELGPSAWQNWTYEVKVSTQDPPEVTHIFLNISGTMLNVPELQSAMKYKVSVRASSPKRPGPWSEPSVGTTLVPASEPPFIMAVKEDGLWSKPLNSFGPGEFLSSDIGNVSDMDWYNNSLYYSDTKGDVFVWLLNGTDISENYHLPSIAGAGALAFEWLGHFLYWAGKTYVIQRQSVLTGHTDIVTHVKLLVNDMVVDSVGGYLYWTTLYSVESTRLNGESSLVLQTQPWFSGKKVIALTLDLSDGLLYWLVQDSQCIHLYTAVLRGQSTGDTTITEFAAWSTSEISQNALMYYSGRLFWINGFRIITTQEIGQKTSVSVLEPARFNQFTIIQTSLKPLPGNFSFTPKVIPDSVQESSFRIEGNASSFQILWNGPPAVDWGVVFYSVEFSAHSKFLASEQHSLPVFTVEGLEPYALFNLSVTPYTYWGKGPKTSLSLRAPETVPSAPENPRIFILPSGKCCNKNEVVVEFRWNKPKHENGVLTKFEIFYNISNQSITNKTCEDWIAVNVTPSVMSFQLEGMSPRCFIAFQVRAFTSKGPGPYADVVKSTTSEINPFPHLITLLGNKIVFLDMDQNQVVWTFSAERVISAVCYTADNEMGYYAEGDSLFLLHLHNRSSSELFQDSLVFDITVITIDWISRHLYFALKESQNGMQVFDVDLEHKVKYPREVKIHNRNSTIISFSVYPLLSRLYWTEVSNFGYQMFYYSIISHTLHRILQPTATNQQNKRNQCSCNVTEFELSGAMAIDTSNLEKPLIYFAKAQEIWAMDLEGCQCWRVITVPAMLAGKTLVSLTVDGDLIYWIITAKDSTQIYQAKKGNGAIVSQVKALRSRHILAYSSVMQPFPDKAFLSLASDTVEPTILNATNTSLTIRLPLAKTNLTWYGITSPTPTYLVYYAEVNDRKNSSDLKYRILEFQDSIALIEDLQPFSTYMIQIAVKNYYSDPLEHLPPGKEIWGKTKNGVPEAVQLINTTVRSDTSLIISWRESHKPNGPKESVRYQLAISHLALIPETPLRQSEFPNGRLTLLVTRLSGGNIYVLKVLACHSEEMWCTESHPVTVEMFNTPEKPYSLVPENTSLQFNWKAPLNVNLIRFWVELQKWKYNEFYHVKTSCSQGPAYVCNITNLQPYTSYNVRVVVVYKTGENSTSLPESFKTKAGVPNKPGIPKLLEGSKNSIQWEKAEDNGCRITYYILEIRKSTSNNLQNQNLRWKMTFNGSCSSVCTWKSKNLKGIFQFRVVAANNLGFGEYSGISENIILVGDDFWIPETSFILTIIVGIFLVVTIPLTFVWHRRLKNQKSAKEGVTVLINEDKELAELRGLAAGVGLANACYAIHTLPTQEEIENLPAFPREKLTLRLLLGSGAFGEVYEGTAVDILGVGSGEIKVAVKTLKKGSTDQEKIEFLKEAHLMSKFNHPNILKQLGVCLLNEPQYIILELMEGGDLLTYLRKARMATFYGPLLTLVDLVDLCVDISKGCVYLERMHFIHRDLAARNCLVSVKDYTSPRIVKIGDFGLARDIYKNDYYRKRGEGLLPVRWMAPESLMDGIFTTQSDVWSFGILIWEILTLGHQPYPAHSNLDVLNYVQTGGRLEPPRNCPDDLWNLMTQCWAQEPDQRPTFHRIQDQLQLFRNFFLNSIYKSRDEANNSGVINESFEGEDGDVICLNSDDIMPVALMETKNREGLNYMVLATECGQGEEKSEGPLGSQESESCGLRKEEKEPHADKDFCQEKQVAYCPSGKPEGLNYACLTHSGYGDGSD
Sequence of Dual specificity tyrosine-phosphorylation-regulated kinase 1B (Q9Y463 whole entry, looked up, canonical isoform): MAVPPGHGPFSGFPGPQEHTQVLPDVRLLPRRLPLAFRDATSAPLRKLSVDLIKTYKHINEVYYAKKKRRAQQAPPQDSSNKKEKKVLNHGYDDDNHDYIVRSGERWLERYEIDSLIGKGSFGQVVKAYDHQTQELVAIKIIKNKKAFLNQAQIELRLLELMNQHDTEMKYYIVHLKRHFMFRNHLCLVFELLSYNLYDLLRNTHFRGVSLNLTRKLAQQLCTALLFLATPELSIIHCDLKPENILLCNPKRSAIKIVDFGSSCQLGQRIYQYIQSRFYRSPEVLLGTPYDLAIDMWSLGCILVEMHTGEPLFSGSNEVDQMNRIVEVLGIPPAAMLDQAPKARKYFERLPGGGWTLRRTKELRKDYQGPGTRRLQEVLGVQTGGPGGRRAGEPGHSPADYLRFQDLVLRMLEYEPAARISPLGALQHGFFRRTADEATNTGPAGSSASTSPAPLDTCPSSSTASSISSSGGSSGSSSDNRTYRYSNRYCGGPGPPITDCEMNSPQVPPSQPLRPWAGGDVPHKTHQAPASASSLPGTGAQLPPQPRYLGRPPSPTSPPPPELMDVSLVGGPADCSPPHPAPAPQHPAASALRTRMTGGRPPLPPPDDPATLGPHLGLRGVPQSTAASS
Sequence of Serine/threonine-protein kinase 32B (Homo sapiens) (Q9NY57 whole entry): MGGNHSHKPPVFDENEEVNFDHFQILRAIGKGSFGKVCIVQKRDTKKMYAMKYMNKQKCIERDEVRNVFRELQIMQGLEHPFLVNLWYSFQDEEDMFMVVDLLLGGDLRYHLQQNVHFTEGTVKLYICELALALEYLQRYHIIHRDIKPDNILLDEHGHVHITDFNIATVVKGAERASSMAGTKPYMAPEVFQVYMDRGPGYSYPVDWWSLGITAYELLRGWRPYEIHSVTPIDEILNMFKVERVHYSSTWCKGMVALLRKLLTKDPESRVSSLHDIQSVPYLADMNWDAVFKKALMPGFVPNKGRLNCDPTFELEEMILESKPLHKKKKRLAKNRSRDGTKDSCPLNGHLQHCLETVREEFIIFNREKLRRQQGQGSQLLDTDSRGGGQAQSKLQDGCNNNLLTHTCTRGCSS

Regarding `CN(C)C/C=C/C(=O)Nc1ccc(C(=O)N2CCCC(Nc3ncc(Cl)c(-c4c[nH]c5ccccc45)n3)C2)cc1` (stereo unspecified), the figures for the % of control in experiment [1] and in [2] were 83% and 85%, respectively. `Nc1cnc(N2CCc3cc(S(=O)(=O)Nc4c(F)cc(Cl)cc4F)cc(N4CCCC4=O)c32)nc1` [TP-020n]: in experiment [3], the % of control was 74%. As to `CCc1cc(Nc2nccc(-c3c(-c4ccc(OC)c(C(=O)Nc5c(F)cccc5F)c4)nc4ccccn34)n2)c(OC)cc1N1CCC(N2CCN(S(C)(=O)=O)CC2)CC1`, the % of inhibition in [4] is 97%. The compound `N#Cc1cccc(-c2c[nH]c3ncnc(N4CCOCC4)c23)c1` displayed a % of control in experiment [5] of 70%. In the case of `CN1Cc2nccc(-c3cn(C)nc3-c3ccc(F)cc3)c2C1=O`, in experiment [6], the % of inhibition was -10%. `CC[C@@H]1[C@H](F)C(=O)N[C@@H]1COc1nccc2cc(C(N)=O)c(OC)cc12` [ZIMLOVISERTIB]: the % of inhibition in [7] is 0.6%; in experiment [8], 1.34%. `CCN(CC)CCCCNc1ncc2cc(-c3cc(OC)cc(OC)c3)c(NC(=O)NC(C)(C)C)nc2n1` registered a % of control in experiment [9] of 100%. For `COCC(=O)NC/C=C/c1ccc2ncnc(Nc3ccc(Oc4ccc(C)nc4)c(C)c3)c2c1` [CP-724714], the % of control in [10] and in experiment [11] was 93% each time.
